The values that follow come from patent US7005437B2, “Substituted aryl and heteroaryl derivatives, the preparation thereof and the use therof as pharmaceutical compositions” (Boehringer Ingelheim Pharma KG, priority 2001, dated 2006).

This test has as its target T1, human factor Xa (Homo sapiens, UniProt P00742).
T1 construct: released from the colourless chromogenic substrate by human factor Xa; purchased Roche
Briefly: Factor Xa inhibition, enzyme-kinetic measurement with chromogenic substrate. The test is classed as biochemical. The settings on record: chromogenic substrate Chromozym X, pNA release at 405 nm, pH 8.0, 37° C. How it is done: The compounds of Examples 1 to 45 of the present application were investigated for their effect on the inhibition of factor Xa as follows: Method: Enzyme-kinetic measurement with chromogenic substrate. The quantity of p-nitroaniline (pNA) released from the colourless chromogenic substrate by human factor Xa is determined photometrically at 405 nm. It is proportional to the activity of the enzyme used. The inhibition of the enzyme activity by the test substance (in relation to the solvent control) is determined at various concentrations of test substance and from this the IC50 is calculated, as the concentration which inhibits the factor Xa used by 50%.
Tris(hydroxymethyl)-aminomethane buffer (100 mMol) of and sodium chloride (150 mMol), pH 8.0
Factor Xa (Roche), spec. activity: 10 U/0.5 ml, final concentration: 0.175 U/ml for each reaction mixture
Substrate Chromozym X (Roche), final concentration: 200 μMol/l for each reaction mixture
10 μl of a 23.5-times concentrated starting solution of the test substance or solvent (control), 175 μl of tris(hydroxymethyl)-aminomethane buffer and 25 μl of a 1.65 U/ml Factor Xa working solution are incubated for 10 minutes at 37° C. After the addition of 25 μl of Chromozym X working solution ([…]) the sample is measured in a photometer (SpectraMax 250) at 405 nm for 150 seconds at 37° C.
1. […]

Where a name gives a salt, the structure may show the parent alone.

T1 sequence (P00742 235-488 limits assumed): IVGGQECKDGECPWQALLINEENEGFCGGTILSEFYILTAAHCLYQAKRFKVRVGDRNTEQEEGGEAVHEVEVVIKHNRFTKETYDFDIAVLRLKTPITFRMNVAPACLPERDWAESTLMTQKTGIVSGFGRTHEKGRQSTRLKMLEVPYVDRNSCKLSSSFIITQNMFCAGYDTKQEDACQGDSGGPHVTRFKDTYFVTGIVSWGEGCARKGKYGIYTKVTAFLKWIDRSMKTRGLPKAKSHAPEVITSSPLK
T1 sequence (P00742 41-179 partner limits assumed): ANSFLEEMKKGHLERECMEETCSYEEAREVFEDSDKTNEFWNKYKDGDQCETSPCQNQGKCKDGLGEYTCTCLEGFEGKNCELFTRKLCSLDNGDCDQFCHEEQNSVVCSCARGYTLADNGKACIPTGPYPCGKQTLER

As for `Cc1cc(C#CCN(Cc2ccccc2)c2cccc(C(=N)N)c2)ccc1C(=O)N1CC=CC1` [Example 37, 3-{N-benzyl-3-[3-methyl-4-(2,5-dihydropyrrol-1-yl-carbonyl)-phenyl]-propargylamino}-benzamidine-hydrochloride], 4 nM corresponded to half-maximal inhibition (IC50).
